According to patent US20250114430A1, “MODIFIED PEPTIDOMIMETICS AND METHODS OF USE” (The University of North Carolina at Chapel Hill, priority 2021, published 2025):
No end group written: not given here.

Experiments:
αSMA = αSMA expression in fibroblasts after three days of TGFβ (confocal microscopy); type: cell-based
Experimental: After three days of TGFβ induced αSMA deposition, ELD607 was then added for 24 h at 10 μM and αSMA expression was assessed by confocal microscopy. Data are shown as mean+/−SEM and data were analyzed by ANOVA.
FIG. 39A-39B show ELD607 reduces αSMA deposition. After three days of TGFβ induced αSMA deposition, ELD607 or other compounds (pirfenidone, nintedanib, zigovractin, YM-58483) were then added as indicated for 24 h at 10 μM. […] Data are shown as mean+/−SEM and data were analyzed by ANOVA.
In vitro Methods: Fibroblasts were exposed to 10 nM TFGβ for 3-7 days as indicated. Then, ELD607 was added overnight. Fibroblasts were then fixed in paraformaldehyde, stained with primary a smooth muscle actin (αSMA) antibody, and imaged by confocal microscopy. Myofibroblasts were exposed to ELD607 without any TGFβ pre-treatment. In some cases, Western blotting was used to probe for αSMA.
Fibroblasts were exposed to TGFβ for three days and then exposed to vehicle or the indicated compounds. Cells were then fixed, stained for αSMA, and expression measured by confocal microscopy.

[1] = system: E. coli lipopolysaccharide (LPS); assay: E. coli LPS acute respiratory distress syndrome (ARDS) model; type: in vivo, mice; conditions: 3 mg/kg LPS
Experimental: FIG. 34 panels B-D show lung injury score (FIG. 34 panel B), % weight loss (FIG. 34 panel C), and % BAL neutrophils (FIG. 34 […]) in relation to FIG. 34 panel A. Lung injury scoring system taken from Aeffner et al. Mouse Models of Acute Respiratory Distress Syndrome: A Review of Analytical Approaches, Pathologic Features, and Common Measurements. 2015 Tox Pathol.
ELD607 reduces inflammation in an acute respiratory distress syndrome (ARDS) model. Mice were intratracheally to 3 mg/kg E. coli lipopolysaccharide (LPS). 0.5 mg/kg ELD607 was instilled intranasally 1 or 6 h later. As a control, 3 mg/kg dexamethasone was given intranasally.

Orai1 = Orai1 (Homo sapiens, UniProt Q96D31); assay: Orai1 immunocytochemistry on immune cells of ARDS/bacterial pneumonia patients; type: cell-based; parameters: immune cells of ARDS/bacterial pneumonia patients; endogenous in cells; host or cells: immune cells from tracheal aspirates of ARDS/bacterial pneumonia patients; conditions: paired patient samples
Orai1, sequence (Q96D31 whole entry): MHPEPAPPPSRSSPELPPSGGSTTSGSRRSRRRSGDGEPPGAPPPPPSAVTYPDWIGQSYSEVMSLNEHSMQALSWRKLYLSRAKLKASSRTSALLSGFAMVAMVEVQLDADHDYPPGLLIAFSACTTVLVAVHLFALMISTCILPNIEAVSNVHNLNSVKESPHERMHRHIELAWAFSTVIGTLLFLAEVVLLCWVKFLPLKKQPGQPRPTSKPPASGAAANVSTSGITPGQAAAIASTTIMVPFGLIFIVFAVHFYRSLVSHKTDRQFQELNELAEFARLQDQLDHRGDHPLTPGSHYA
Description: We then performed Orai1 immunocytochemistry on paired samples of immune cells of ARDS/bacterial pneumonia patients. Cells derived from each patient were exposed to either vehicle, ELD607, or scrambled ELD607 (FIG. 27, panels D and E).

[2] = system: Primary human bronchial epithelial cultures; assay: Cytotoxicity and transepithelial resistance in primary human bronchial epithelial cultures; type: cell-based; conditions: 1 mM, 24 h
Experimental: FIG. 28 panels C and D show cell viability per arbitrary units (left) and transepithelial resistance (right) of vehicle vs. ELD607 before and after treatment.
ELD607 is non-toxic in vitro and in vivo. To investigate potential cytotoxic effects of ELD607, […] were exposed to 100 μM ELD607 for 24 h. Cytotoxicity was assessed by exposing cells to calcein to label live cells and fluorescence read by multi-plate reader. […] Primary human bronchial epithelial cultures were exposed to 1 mM ELD607 or vehicle control (saline) for 24 h. Cytotoxicity was assessed by confocal microscopy using calcein and propidium iodide to label live and dead cells respectively. […] Transepithelial resistance was also measured before and after treatment as a measure of epithelial integrity.

in vitro = in vitro ADME; conditions: human, serum
Experimental: We injected mice intraperitoneally with E. coli LPS, followed by 0.5 mg/kg ELD607 injected intravenously 1 h later.

[3] = target: T1, human neutrophil elastase (Homo sapiens, UniProt P08246); type: in vitro ADME
T1 sequence (P08246 30-267): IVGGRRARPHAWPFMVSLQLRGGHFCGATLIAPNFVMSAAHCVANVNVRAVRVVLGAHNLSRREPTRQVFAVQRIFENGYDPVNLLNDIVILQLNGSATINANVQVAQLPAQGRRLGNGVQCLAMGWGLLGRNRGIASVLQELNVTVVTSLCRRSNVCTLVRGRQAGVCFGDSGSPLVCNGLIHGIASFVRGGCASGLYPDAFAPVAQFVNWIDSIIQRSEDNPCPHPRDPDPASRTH
Experimental: Peptides were exposed to NE over time, and the reaction was stopped by addition of sivelestat. HPLC was then performed in order to determine peptide stability. N=3-4 replicates per time point.
HEK293T cells were plated and incubated for 2 hours with Fluo-4 plus or minus ELD peptides, with fluorescent images taken every 30 seconds for 2-6 minutes at excitation/emission wavelengths of 488/530 nm. […] Candidate peptides ELD604, 607, 601, and 100 were tested for resistance against protease degradation, wherein the peptides were incubated with neutrophil elastase, treated with the elastase inhibitor sivelestat at various timepoints to halt ongoing reactions, and then analyzed by HPLC (FIG. 9).
(§1) Endogenous Orai1/store operated Ca^2+ influx have been extensively studied in HEK293T cells, so this cell type was used to understand ELD607-Orai1 interactions. […] Thapsigargin is a SERCA pump inhibitor that prevents uptake of cytosolic Ca^2+ into the endoplasmic reticulum. Thapsigargin is commonly used to stimulate Orai1/store operated Ca^2+ influx. […] Dynamic light scattering (DLS) was used to evaluate binding of ELD607 to peptides of Orai1 extracellular loops. […] Thus, it was concluded that ELD607 interacts with Orai1.

[4] = target: T2, Orai1/store operated Ca^2+ influx (Homo sapiens, UniProt Q96D31); assay: Store operated Ca^2+ influx in HEK293T cells (Example 2); type: cell-based; conditions: a6 and ELD607 combined
T2 construct: Endogenous Orai1/store operated Ca^2+ influx have been extensively studied in HEK293T cells; endogenous in cells; host or cells: HEK293T
T2 sequence (Q96D31 whole entry): as the sequence (Q96D31 whole entry) above
Description: as §1

[5] = Lung retention and blood exposure after intratracheal dosing in mice; conditions: mouse, in vivo
Experimental: FIG. 30 panels B and C show % ELD607 recovered in BAL (FIG. 30 panel B) and blood (FIG. 30 panel C).
ELD607 is retained in the lung lumen. ELD607-TAMRA or vehicle (saline) was administered to mice intratracheally (0.5 mM, 1 h). Lungs were isolated, fixed, clarified and imaged using light-sheet fluorescence microscopy. […] We then dosed mice with 10 mg/kg ELD607 and collected BAL and blood. ELD607 levels declined over time in the BAL and plateaued with ˜10% of the initial dose detected after 2 h (FIG. 30, panel B).

VHDIVNMLIRG [ELD607, VHDIVNMLIRG]
reduction in αSMA versus pirfenidone, nintedanib, zigrocractin and YM-58483 (αSMA; 10 μM, 24 h): significantly greater reduction in αSMA than all other compounds tested | αSMA expression, dose dependence (αSMA; TGFβ three days, then ELD607 24 h): dose-dependently reduced αSMA expression | BAL neutrophilia ([1]; 0.5 mg/kg ELD607 intranasally): attenuated BAL neutrophilia | weight loss ([1]; 0.5 mg/kg ELD607 intranasally): reduced weight loss | lung damage (lung injury score) ([1]; 0.5 mg/kg ELD607 intranasally 1 or 6 h later): significantly reduced lung damage caused by LPS | Orai1 levels (Orai1): significant reduction in Orai1 levels | cytotoxicity (calcein and propidium iodide) [2]: not significantly different to vehicle control | transepithelial resistance ([2]; before and after treatment): No differences were found | remaining at 4 h (in vitro): 100% | stability against neutrophil elastase [3]: significant increase in stability | stability relative to a6 after exposure to human neutrophil elastase [3]: four times more stable | additivity of inhibitory effects of a6 and ELD607 on thapsigargin-induced elevations in cytosolic Ca^2+ [4]: not additive | % of the initial dose detected in BAL [5]: ~10% | % of the original dose detected in the blood [5]: less than 0.3%
